Laboratory results: ChEMBL document CHEMBL1201862, “PubChem BioAssay data set” (2004)
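Each compound was tested at five concentrations against cells in 96-well plates for 48 hours. Abbreviation: GI50, concentration required for 50% inhibition of growth.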 The source made the active and inactive calls. No stated cut-off is given here; in the data, active = GI50 up to about 1.1 µM and inactive = higher.

How the values were obtained:
Assay in all cases: NCI-60 cell line screen, 48 h
786-0 = system: 786-0
A549 = system: A549
DMS-114 = system: DMS-114
HL-60 = system: HL-60
KM12 = system: KM12
LOX IMVI = system: LOX IMVI
M14 = system: M14
NCI-H226 = system: NCI-H226
OVCAR-3 = system: OVCAR-3
OVCAR-4 = system: OVCAR-4
OVCAR-5 = system: OVCAR-5
SF-268 = system: SF-268
SF-539 = system: SF-539
SK-MEL-28 = system: SK-MEL-28
SNB-75 = system: SNB-75
UACC-257 = system: UACC-257
HOP-92 = system: HOP-92
MDA-N = system: MDA-N
NCI/ADR-RES = system: NCI/ADR-RES
SR = system: SR

Compound | GI50 (786-0) | GI50 (A549) | GI50 (DMS-114) | GI50 (HL-60) | GI50 (KM12) | GI50 (LOX IMVI) | GI50 (M14) | GI50 (NCI-H226) | GI50 (OVCAR-3) | GI50 (OVCAR-4) | GI50 (OVCAR-5) | GI50 (SF-268) | GI50 (SF-539) | GI50 (SK-MEL-28) | GI50 (SNB-75) | GI50 (UACC-257) | GI50 (HOP-92) | GI50 (MDA-N) | GI50 (NCI/ADR-RES) | GI50 (SR)
Cc1cccc(NC(=O)CSc2nnc(Cc3ccccc3)o2)c1 | > 100 µM (inactive) | > 100 µM (inactive) | > 100 µM (inactive) | > 100 µM (inactive) | > 100 µM (inactive) | > 100 µM (inactive) | > 100 µM (inactive) | > 100 µM (inactive) | > 100 µM (inactive) | > 100 µM (inactive) | > 100 µM (inactive) | > 100 µM (inactive) | > 100 µM (inactive) | > 100 µM (inactive) | 63.8 µM (inactive) | > 100 µM (inactive) |  |  |  | 
CC1(C)N=c2c(ncn2CCCO)=C(C(N)=O)N1 | > 100 µM (inactive) | > 100 µM (inactive) |  | > 100 µM (inactive) | > 100 µM (inactive) | > 100 µM (inactive) | > 100 µM (inactive) | > 100 µM (inactive) | > 100 µM (inactive) | > 100 µM (inactive) | > 100 µM (inactive) | > 100 µM (inactive) | > 100 µM (inactive) | > 100 µM (inactive) | 60.4 µM (inactive) | > 100 µM (inactive) | > 100 µM (inactive) | > 100 µM (inactive) | > 100 µM (inactive) | > 100 µM (inactive)
O=C(CC1(O)C(=O)Nc2ccccc21)c1ccccc1Cl (configuration not stated) | > 100 µM (inactive) | > 100 µM (inactive) | > 100 µM (inactive) | > 100 µM (inactive) |  | > 100 µM (inactive) | > 100 µM (inactive) | > 100 µM (inactive) | > 100 µM (inactive) | > 100 µM (inactive) | > 100 µM (inactive) | > 100 µM (inactive) | > 100 µM (inactive) | > 100 µM (inactive) | > 100 µM (inactive) | > 100 µM (inactive) | > 100 µM (inactive) |  |  | 
COc1cc(C(c2c(O)c3ccccc3oc2=O)c2c(O)c3ccccc3oc2=O)cc(Br)c1O | 17.7 µM (inactive) | 18.4 µM (inactive) |  | 27.7 µM (inactive) | 17.5 µM (inactive) | 16 µM (inactive) | 16.8 µM (inactive) | 21.5 µM (inactive) | 15.9 µM (inactive) | 15.4 µM (inactive) | 23.5 µM (inactive) | 13.8 µM (inactive) | 15.6 µM (inactive) | 21.6 µM (inactive) | 18.8 µM (inactive) | 17.3 µM (inactive) | 12.5 µM (inactive) | 18.4 µM (inactive) | 23 µM (inactive) | 14 µM (inactive)
O=C(CSc1nnc(Cc2ccccc2)o1)Nc1ccc(Cl)cc1Cl | > 100 µM (inactive) | > 100 µM (inactive) | > 100 µM (inactive) | > 100 µM (inactive) | > 100 µM (inactive) | > 100 µM (inactive) | > 100 µM (inactive) | > 100 µM (inactive) | > 100 µM (inactive) | > 100 µM (inactive) | > 100 µM (inactive) | > 100 µM (inactive) | > 100 µM (inactive) | > 100 µM (inactive) | > 100 µM (inactive) | > 100 µM (inactive) |  |  |  | 
COc1ccc(C(c2ccccc2C(=O)O)c2ccc(OC)c3ccccc23)c2ccccc12 | 15.8 µM (inactive) | 7.48 µM (inactive) | 7.06 µM (inactive) | 7.33 µM (inactive) | 8.15 µM (inactive) | 18 µM (inactive) | 16.2 µM (inactive) | 20 µM (inactive) | 13.5 µM (inactive) | 10.7 µM (inactive) | 15.1 µM (inactive) | > 10 µM (inactive) | 12 µM (inactive) |  |  | 4.85 µM (inactive) | 33.5 µM (inactive) |  |  | 
Cc1nc2c(o1)C(=O)c1ccccc1/C2=N/C1CCCCC1N (configuration not stated) | 1.77 µM (inactive) | 1.46 µM (inactive) |  | 0.2 µM (active) | 1.67 µM (inactive) | 0.16 µM (active) | 0.425 µM (active) | 1.97 µM (inactive) | 0.249 µM (active) | 0.308 µM (active) | 1.75 µM (inactive) | 1.09 µM (active) | 0.32 µM (active) | 0.166 µM (active) | 0.206 µM (active) | 0.144 µM (active) | 0.483 µM (active) | 0.185 µM (active) | 0.288 µM (active) | 0.22 µM (active)
N#Cc1nc(C2OC(COC(=O)c3ccccc3)C(OC(=O)c3ccccc3)C2OC(=O)c2ccccc2)oc1N (configuration not stated) | 27 µM (inactive) | 26.4 µM (inactive) | 28.9 µM (inactive) | 7.03 µM (inactive) | 18.3 µM (inactive) | 67.1 µM (inactive) | 89.7 µM (inactive) | 14.2 µM (inactive) | 34.1 µM (inactive) | 10.8 µM (inactive) | 87.7 µM (inactive) | 15 µM (inactive) | 58.6 µM (inactive) | 31 µM (inactive) | 11.3 µM (inactive) | 20.7 µM (inactive) | 96.4 µM (inactive) |  |  | 
